Test results published in PubChem BioAssay (NCI).
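Results reflect a 48-hour exposure of cells in 96-well plates to compound at five concentrations. TGI denotes the concentration required for complete inhibition of growth.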

Legend:
Experiment in all cases: growth of human tumour cells (NCI), 48 h
[1] = test system: MOLT-4 leukemia
[2] = test system: HS 578T breast
[3] = test system: MDA-N
[4] = test system: EKVX NSCLC
[5] = test system: T-47D breast
[6] = test system: MDA-MB-435
[7] = test system: HL-60(TB) leukemia
[8] = test system: PC-3 prostate
[9] = test system: LOX IMVI melanoma
[10] = test system: HOP-62 NSCLC
[11] = test system: CAKI-1 renal
[12] = test system: SF-268 CNS
[13] = test system: SK-MEL-5 melanoma
[14] = test system: U251 CNS
[15] = test system: RPMI-8226 leukemia
[16] = test system: UO-31 renal
[17] = test system: RXF 393 renal
[18] = test system: ACHN renal
[19] = test system: DU-145 prostate
[20] = test system: SN12C renal
[21] = test system: HOP-92 NSCLC
[22] = test system: M14 melanoma
[23] = test system: TK-10 renal
[24] = test system: IGROV1 ovarian
[25] = test system: COLO 205 colon
[26] = test system: HCT-116 colon
[27] = test system: OVCAR-5 ovarian
[28] = test system: HCT-15 colon
[29] = test system: CCRF-CEM leukemia
[30] = test system: SR leukemia
[31] = test system: OVCAR-8 ovarian
[32] = test system: KM12 colon
[33] = test system: NCI/ADR-RES ovarian
[34] = test system: SW-620 colon
[35] = test system: SK-MEL-28 melanoma
[36] = test system: OVCAR-3 ovarian
[37] = test system: SNB-19 CNS
[38] = test system: NCI-H522 lung
[39] = test system: A549 NSCLC
[40] = test system: 786-0 renal
[41] = test system: NCI-H23 lung
[42] = test system: HT29 colon
[43] = test system: MCF7 breast
[44] = test system: BT-549 breast
[45] = test system: NCI-H226 lung
[46] = test system: SK-MEL-2 melanoma
[47] = test system: OVCAR-4 ovarian
[48] = test system: A498 renal
[49] = test system: NCI-H460 lung
[50] = test system: UACC-257 melanoma
[51] = test system: SF-295 CNS
[52] = test system: SK-OV-3 ovarian
[53] = test system: SNB-75 CNS
[54] = test system: SF-539 CNS
[55] = test system: K-562 leukemia
[56] = test system: MDA-MB-231 breast
[57] = test system: UACC-62 melanoma
[58] = test system: MALME-3M melanoma
[59] = test system: HCC-2998 colon

Nc1nc(N)nc(CCCc2nc(N)nc(N)n2)n1
TGI [1]: > 100 µM
TGI [2]: > 100 µM
TGI [3]: > 100 µM
TGI [4]: > 100 µM
TGI [5]: > 100 µM
TGI [6]: > 100 µM
TGI [7]: > 100 µM
TGI [8]: > 100 µM
TGI [9]: > 100 µM
TGI [10]: > 100 µM
TGI [11]: > 100 µM
TGI [12]: > 100 µM
TGI [13]: > 100 µM
TGI [14]: > 100 µM
TGI [15]: > 100 µM
TGI [16]: > 100 µM
TGI [17]: > 100 µM
TGI [18]: > 100 µM
TGI [19]: > 100 µM
TGI [20]: > 100 µM
TGI [21]: > 100 µM
TGI [22]: > 100 µM
TGI [23]: > 100 µM
TGI [24]: > 100 µM
TGI [25]: > 100 µM
TGI [26]: > 100 µM
TGI [27]: > 100 µM
TGI [28]: > 100 µM
TGI [29]: > 100 µM
TGI [30]: > 100 µM
TGI [31]: > 100 µM
TGI [32]: > 100 µM
TGI [33]: > 100 µM
TGI [34]: > 100 µM
TGI [35]: > 100 µM
TGI [36]: > 100 µM
TGI [37]: > 100 µM
TGI [38]: > 100 µM
TGI [39]: > 100 µM
TGI [40]: > 100 µM
TGI [41]: > 100 µM
TGI [42]: > 100 µM
TGI [43]: > 100 µM
TGI [44]: > 100 µM
TGI [45]: > 100 µM
TGI [46]: > 100 µM
TGI [47]: > 100 µM
TGI [48]: > 100 µM
TGI [49]: > 100 µM
TGI [50]: > 100 µM
TGI [51]: > 100 µM
TGI [52]: > 100 µM
TGI [53]: > 100 µM
TGI [54]: > 100 µM
TGI [55]: > 100 µM
TGI [56]: > 100 µM
TGI [57]: > 100 µM
TGI [58]: > 100 µM

CC12CC1C(c1cccc([N+](=O)[O-])c1)(c1cccc([N+](=O)[O-])c1)N=N2 (stereo unspecified)
TGI [1]: > 100 µM
TGI [2]: 78 µM
TGI [3]: 50.5 µM
TGI [4]: > 100 µM
TGI [5]: > 100 µM
TGI [6]: > 100 µM
TGI [7]: 45.8 µM
TGI [8]: 88.8 µM
TGI [9]: 27.8 µM
TGI [10]: > 100 µM
TGI [12]: > 100 µM
TGI [13]: > 100 µM
TGI [14]: 51 µM
TGI [15]: 35.9 µM
TGI [16]: 23.8 µM
TGI [18]: 29.4 µM
TGI [19]: > 100 µM
TGI [20]: 55 µM
TGI [21]: 34.7 µM
TGI [22]: > 100 µM
TGI [23]: > 100 µM
TGI [24]: 60.5 µM
TGI [25]: 41.5 µM
TGI [26]: 33.8 µM
TGI [27]: > 100 µM
TGI [28]: 44 µM
TGI [29]: 43.9 µM
TGI [59]: > 100 µM
TGI [30]: 55.8 µM
TGI [31]: 74.4 µM
TGI [32]: 47.3 µM
TGI [33]: 59.3 µM
TGI [34]: > 100 µM
TGI [35]: > 100 µM
TGI [36]: > 100 µM
TGI [37]: > 100 µM
TGI [38]: 23.2 µM
TGI [39]: > 100 µM
TGI [40]: 52.7 µM
TGI [41]: 51.5 µM
TGI [42]: > 100 µM
TGI [43]: > 100 µM
TGI [44]: 45.8 µM
TGI [45]: > 100 µM
TGI [46]: > 100 µM
TGI [47]: 80.3 µM
TGI [48]: > 100 µM
TGI [49]: > 100 µM
TGI [50]: > 100 µM
TGI [51]: > 100 µM
TGI [52]: > 100 µM
TGI [53]: > 100 µM
TGI [54]: 52.9 µM
TGI [55]: > 100 µM
TGI [56]: 39.1 µM
TGI [57]: 44.1 µM
TGI [58]: 53.1 µM

O=[N+]([O-])c1ccc(CSCc2ccc(Cl)cc2)cc1
TGI [1]: > 100 µM
TGI [2]: > 100 µM
TGI [3]: > 100 µM
TGI [4]: > 100 µM
TGI [5]: > 100 µM
TGI [6]: > 100 µM
TGI [7]: > 100 µM
TGI [8]: > 100 µM
TGI [9]: > 100 µM
TGI [10]: > 100 µM
TGI [11]: > 100 µM
TGI [12]: > 100 µM
TGI [13]: > 100 µM
TGI [14]: > 100 µM
TGI [15]: > 100 µM
TGI [16]: > 100 µM
TGI [17]: > 100 µM
TGI [18]: > 100 µM
TGI [19]: > 100 µM
TGI [20]: > 100 µM
TGI [21]: > 100 µM
TGI [22]: > 100 µM
TGI [23]: > 100 µM
TGI [24]: > 100 µM
TGI [25]: > 100 µM
TGI [26]: > 100 µM
TGI [27]: > 100 µM
TGI [28]: > 100 µM
TGI [29]: 38.7 µM
TGI [30]: > 100 µM
TGI [31]: > 100 µM
TGI [32]: > 100 µM
TGI [33]: > 100 µM
TGI [34]: > 100 µM
TGI [35]: > 100 µM
TGI [36]: > 100 µM
TGI [37]: > 100 µM
TGI [38]: > 100 µM
TGI [39]: > 100 µM
TGI [40]: > 100 µM
TGI [41]: > 100 µM
TGI [42]: > 100 µM
TGI [43]: > 100 µM
TGI [44]: > 100 µM
TGI [45]: > 100 µM
TGI [46]: > 100 µM
TGI [47]: > 100 µM
TGI [48]: > 100 µM
TGI [49]: > 100 µM
TGI [50]: > 100 µM
TGI [51]: > 100 µM
TGI [52]: > 100 µM
TGI [53]: > 100 µM
TGI [54]: > 100 µM
TGI [55]: > 100 µM
TGI [56]: > 100 µM
TGI [57]: > 100 µM
TGI [58]: > 100 µM

CCc1nc2cc3cccnc3c(Cl)c2[nH]c1=O
TGI [1]: > 100 µM
TGI [2]: > 100 µM
TGI [3]: > 100 µM
TGI [4]: > 100 µM
TGI [5]: > 100 µM
TGI [6]: > 100 µM
TGI [7]: > 100 µM
TGI [8]: > 100 µM
TGI [9]: > 100 µM
TGI [10]: > 100 µM
TGI [11]: > 100 µM
TGI [12]: > 100 µM
TGI [13]: > 100 µM
TGI [14]: > 100 µM
TGI [15]: > 100 µM
TGI [16]: > 100 µM
TGI [17]: 91.1 µM
TGI [18]: > 100 µM
TGI [19]: > 100 µM
TGI [20]: > 100 µM
TGI [21]: > 100 µM
TGI [22]: > 100 µM
TGI [23]: > 100 µM
TGI [24]: > 100 µM
TGI [25]: > 100 µM
TGI [26]: > 100 µM
TGI [27]: > 100 µM
TGI [28]: > 100 µM
TGI [29]: > 100 µM
TGI [59]: > 100 µM
TGI [30]: > 100 µM
TGI [31]: > 100 µM
TGI [32]: > 100 µM
TGI [33]: > 100 µM
TGI [34]: > 100 µM
TGI [35]: > 100 µM
TGI [36]: > 100 µM
TGI [37]: > 100 µM
TGI [38]: > 100 µM
TGI [39]: > 100 µM
TGI [40]: > 100 µM
TGI [41]: > 100 µM
TGI [42]: > 100 µM
TGI [43]: > 100 µM
TGI [44]: > 100 µM
TGI [45]: > 100 µM
TGI [46]: > 100 µM
TGI [47]: > 100 µM
TGI [48]: > 100 µM
TGI [49]: > 100 µM
TGI [50]: > 100 µM
TGI [51]: > 100 µM
TGI [52]: > 100 µM
TGI [53]: 50.4 µM
TGI [55]: > 100 µM
TGI [56]: > 100 µM
TGI [57]: > 100 µM
TGI [58]: > 100 µM
